In PubChem BioAssay (NCI):
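A five-concentration, 48-hour dose response in 96-well plates underlies each endpoint, interpolated linearly between surrounding concentrations. TGI marks complete inhibition of growth.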

Columns and labels:
Test in all cases: inhibition of tumour cell growth, NCI panel, 48 h
A498 renal = test system: A498 renal
A549 NSCLC = test system: A549 NSCLC
EKVX NSCLC = test system: EKVX NSCLC
MCF7 breast = test system: MCF7 breast
NCI-H522 lung = test system: NCI-H522 lung
SNB-75 CNS = test system: SNB-75 CNS
TK-10 renal = test system: TK-10 renal
DLD-1 colon = test system: DLD-1 colon
DMS 114 small cell lung = test system: DMS 114 small cell lung
DMS 273 small cell lung = test system: DMS 273 small cell lung
KM20L2 colon = test system: KM20L2 colon
M19-MEL melanoma = test system: M19-MEL melanoma
SNB-78 CNS = test system: SNB-78 CNS

SMILES	TGI (A498 renal) [µM]	TGI (A549 NSCLC) [µM]	TGI (EKVX NSCLC) [µM]	TGI (MCF7 breast) [µM]	TGI (NCI-H522 lung) [µM]	TGI (SNB-75 CNS) [µM]	TGI (TK-10 renal) [µM]	TGI (DLD-1 colon) [µM]	TGI (DMS 114 small cell lung) [µM]	TGI (DMS 273 small cell lung) [µM]	TGI (KM20L2 colon) [µM]	TGI (M19-MEL melanoma) [µM]	TGI (SNB-78 CNS) [µM]
CC(C)(C)NC(=O)CCC1C(C(=O)NC(C)(C)C)C2(Cl)C(Cl)=C(Cl)C1(Cl)C2(Cl)Cl (stereo not given)	> 100	> 100	> 100	> 100	> 100	> 100	> 100						
COc1cc(Nc2nc3cc(C(F)(F)F)ccc3n3cccc23)cc(OC)c1OC	> 100	> 100	> 100	> 100	> 100	> 100	> 100						
CC(=O)O[C@H]1CC[C@@]2(C)C(=CC[C@@H]3[C@@H]2CC[C@]2(C)c4nc(Cl)ccc4C[C@@H]32)C1	> 100	> 100	> 100	62.3	> 100	94	> 100						
COc1ccc(CNc2cc(=O)n(C)c(=O)[nH]2)cc1	> 100	> 100	> 100	> 100	> 100	> 100	> 100						
O=NN(CCF)C(=O)NC1CCSCC1	> 100	> 100		> 100	> 100	> 100		> 100	> 100	> 100	> 100	> 100	> 100
CN(C)CCc1c2c(nc3ccccc13)C(=O)c1cccnc1C2=O	1.72	3.2	5.73	1.59	0.654	2.29	2.94						
CNNC(=NS(=O)(=O)c1cc(C#N)c(NNC)cc1S)NNC	> 10	> 10	> 10	> 10	> 10	> 10	> 10						
Clc1ccc(C2ON=C(c3ccccc3)N2C23CC4CC(CC(C4)C2)C3)cc1 (stereo not given)	> 10	> 10	> 10	> 10	> 10	> 10	> 10						
COc1cccc(C(=O)C#Cc2cnc(OC)nc2OC)c1	22.1	21.4	3.9	1.28	0.762	5.45	2.91						
Cc1cnc2c(c1C)C(=O)c1ccccc1C2=O	> 100	> 100	> 100	> 100	> 100	> 100	> 100						
O=C(c1ccccc1)c1c(CC(O)c2ccncc2)n(C(=O)c2ccccc2)c2ccccc12 (stereo not given)		52.8			29.7	41.4	75.2	> 100	40.2	37.1	34	33	
CN(C)CCNC(=O)c1cccc2c(NC(CCC(N)=O)C(=O)O)c3ccccc3nc12 (stereo not given)	37.2	64.6	53.3	51.3	22.3	30.8	> 100						
C[N+](C)(C)c1ncnc2c1ncn2C1CCCO1 (stereo not given)	> 100	> 100	> 100	> 100	> 100	> 100	> 100						
COc1ccc2c3c1O[C@H](c1ccc(O)cc1)[C@H]3[N+](C)(C)CC2	> 100	> 100	> 100	> 100	> 100	> 100	> 100						
COC(=O)C(=O)Cc1nc2ccccc2o1	> 100		> 100		> 100	> 100	> 100	> 100	> 100			> 100	> 100
OC(c1cccnc1Cl)c1nc2ccccc2c2ccnc(Cl)c12 (stereo not given)	17.5	> 100	> 100	> 100	5.92	> 100	> 100						
N#Cc1nc(C#N)n(S(=O)(=O)c2ccccc2)c1NS(=O)(=O)c1ccccc1	> 100	> 100	> 100	> 100	> 100	> 100	> 100						
COc1ccc(C(=O)/C=C/c2ccc(OCC#N)cc2)cc1	96.3	> 100	> 100	36.1	35.6	> 100	> 100						
CCN(CCN(CC)C(=O)Nc1ccccc1)C(=O)Nc1ccccc1	> 100	> 100	> 100	> 100	> 100	> 100	> 100						
N#CCCC1(CCC#N)CCCCCCCCC(CCC#N)(CCC#N)C(O)C1O (stereo not given)	> 100	> 100	> 100	> 100	> 100	> 100	> 100						
O=[N+]([O-])c1ccc(C(O)(C#CCN2CCCC2)c2ccccc2)cc1 (stereo not given)	76.6	> 100	> 100	> 100	54.9	> 100	> 100						
CN(CCCNC(=O)c1cc(-c2ccccc2)nc2ccccc12)CCCNC(=O)c1cc(-c2ccccc2)nc2ccccc12	10.1	15.3	17.2	3.2	3.51	5.02	14.9						
COc1cc(Oc2nc3ccc(C(F)(F)F)cc3nc2-c2ccccc2)cc(OC)c1OC	> 100	49.7	> 100	> 100	> 100	23.5	69.2						
O=C1CCCC/C1=C\c1ccc(Cl)c(Cl)c1	> 100	> 100	> 100			46.8	34.4	61.6	41.1	38.5	40.9	40.3	52.7
